Source: patent publication US20240269223A1, “PROPHYLACTIC OR THERAPEUTIC AGENT FOR ACUTE RENAL FAILURE” (KYOWA HAKKO BIO CO., LTD., priority 2021, published 2024)

What was measured:
[1] = tested on: rat bilateral kidney simultaneous ligation ischemic acute renal injury model; test: Rat bilateral kidney simultaneous ligation ischemic acute renal injury model; type: in vivo; conditions: for Blood creatinine (CRE), before administration / Blood urea nitrogen (UN), before administration: baseline, day before administration; for Blood creatinine (CRE), before administration / Blood urea nitrogen (UN), before administration / GDF-15 (growth differentiation factor), 48 hours after ischemia reperfusion / Blood creatinine (CRE), 48 hours after ischemia reperfusion / Blood urea nitrogen (UN), 48 hours after ischemia reperfusion: plasma; for GDF-15 (growth differentiation factor), 48 hours after ischemia reperfusion: ELISA, control 1532 ± 246, placebo surgery 75.2 ± 4.3; for Blood creatinine (CRE), 48 hours after ischemia reperfusion: control 2.98 ± 0.56, placebo surgery 0.24 ± 0.01; for Blood urea nitrogen (UN), 48 hours after ischemia reperfusion: control 154.6 ± 19.5, placebo surgery 14.4 ± 1.1
Experimental: GSSSG dihydrate produced by the method described in Patent Literature 1 was carefully crushed in a mortar for 10 minutes or longer. A required amount of GSSSG dihydrate was weighed out. 0.5 w/v % methylcellulose (hereinafter abbreviated to as MC) was added to the crushed GSSSG dihydrate to prepare a suspension at a concentration of 10 mg/mL, and used as an administration sample for a high-dose administration group. The 10 mg/mL suspension was diluted with 0.5 w/v % MC to prepare a 4 mg/mL suspension, and used as an administration sample for a low-dose administration group.
In the test, 5-week old male SD rats (body weight 136 to 154 g) were used. An 8-day preliminary breeding period was set for the obtained animals. Rats with no abnormalities in body weight change and general condition were used for grouping.
The administration method was oral administration. Forced oral administration was performed using a disposable polypropylene syringe with a metal oral gavage tube for rats. The amount of solution administered was 5 ml/kg for both the high dose group and the low dose group based on the body weight closest to that of the day of administration. Administration was performed a total of 5 times: 1 day before, 2 days before, and 3 days before the ischemia treatment was performed, 1 hour before the ischemia treatment, and 2 hours after the reperfusion treatment.
The ischemia and reperfusion treatments were performed as follows. Anesthesia was performed by intraperitoneal administration of 45 mg/kg (1 mL/kg) of pentobarbital sodium and subcutaneous administration of 1 mg/kg (1 mL/kg) of butorphanol tartrate. Both dorsal parts where the kidneys were located were shaved. Then, the animals were treated on a heater mat. The surgical site was disinfected with about 70% of an alcohol and then incised using scissors. After both kidneys of the animals in Group 2 to Group 4 in Table 3 were exposed, the renal arteries and veins of the left kidney and the right kidney in order were clamped using Klemme (clip power 120 g) for 40 minutes. During clamping, the kidney was returned to the body in order to prevent kidney desiccation. During reperfusion, it was confirmed that the blood color of the kidney was returned to normal (red), and the laparotomy wound was closed and disinfected with Isodine. In the animals of the Group 1, both kidneys were exposed, and returned to the peritoneal cavity without ischemia treatment, and the laparotomy wound was closed and disinfected with Isodine 40 minutes after incision. After suturing, the rats were returned to the original breeding cage.
On the day before administration, without anesthesia, about 0.25 mL of blood was collected from the tail vein using a heparin Na-treated capillary (DRUMMOND). The collected blood was cooled on ice and then separated using a centrifuge (4° C., 2,200×g, for 15 minutes), and the UN concentration and the CRE concentration were measured using the obtained plasma.
48 hours after the reperfusion treatment, under isoflurane anesthesia, all blood was collected from abdominal aorta, using a winged injection needle and a heparin Na-treated vacuum blood collection tube. The collected blood was cooled on ice and then separated using a centrifuge (4° C., 2,150×g, for 15 minutes), and UN, CRE and GDF-15 (Mouse/Rat GDF-15 Quantikine ELISA Kit, R&D Systems, Inc) were measured using the obtained plasma.

[2] = tested on: rat ischemic acute renal injury model with unilateral nephrectomy; test: Rat ischemic acute renal injury model with unilateral nephrectomy; type: in vivo; conditions: 200 mg/kg GSSSG intraperitoneal once a day x4 (day -4 to -1) before 40 min ischemia/reperfusion, versus control group
Experimental: GSSSG dihydrate produced by the method described in Patent Literature 1 was carefully crushed in a mortar for 10 minutes or longer. 1,333 mg (1,250 mg in terms of anhydride) of GSSSG dihydrate was weighed out. 1,333 mg of the crushed GSSSG dihydrate was added to 40 mL of a normal saline, and the mixture was stirred in a suspended state for 5 minutes. 0.25 to 0.50 g of sodium bicarbonate was added to the suspension and dissolved. This GSSSG solution was transferred to a measuring cylinder, and a normal saline was added to make up 50 mL to obtain a preparation solution (final concentration: 25 mg/mL). The obtained preparation solution was filtered with a filter (0.22 μm filter) and used as an administration sample.
In the test, 4-week old male SD rats (body weight 99 to 113 g)
were used. A 16-day preliminary breeding period was set for the obtained animals. Rats with no abnormalities in body weight change and general condition were used for grouping.
One kidney was removed from rats in which no abnormalities were observed after the preliminary breeding period by the following method. […]
The administration sample was administered into the peritoneal cavity of rats from which the right kidney was removed using a disposable polypropylene syringe with an injection needle. […] The amount of solution administered was calculated at 8 mL/kg based on the body weight on the first day of administration. […]

Q: For N[C@@H](CCC(=O)N[C@@H](CSSSC[C@H](NC(=O)CC[C@H](N)C(=O)O)C(=O)NCC(=O)O)C(=O)NCC(=O)O)C(=O)O [GSSSG, glutathione trisulfide], which “Blood creatinine (CRE), before administration” value ([1]; 20 mg/kg oral group) is on record?
A: 0.21 ± 0.00 mg/dL

Q: What about the “Blood urea nitrogen (UN), before administration” value ([1]; 20 mg/kg oral group) of the same molecule?
A: 13.5 ± 0.5 mg/dL

Q: What about the “GDF-15 (growth differentiation factor), 48 hours after ischemia reperfusion” value ([1]; 20 mg/kg oral x5) of the same molecule?
A: 1673 ± 595 pg/mL

Q: And the “Blood creatinine (CRE), 48 hours after ischemia reperfusion” value ([1]; 20 mg/kg oral x5)?
A: 2.29 ± 0.52 mg/dL

Q: And the “Blood urea nitrogen (UN), 48 hours after ischemia reperfusion” value ([1]; 20 mg/kg oral x5)?
A: 136.8 ± 24.6 mg/dL

Q: What about the therapeutic effect ([1]; 50 mg/kg oral administration group) of the same molecule?
A: a therapeutic effect was exhibited

Q: What about the “GDF-15 concentration, change versus control group” value ([1]; 50 mg/kg oral group, 48 hours after reperfusion) of the same molecule?
A: slightly decreased

Q: And the “Blood creatinine (CRE), before administration” value ([1]; 50 mg/kg oral group)?
A: 0.20 ± 0.00 mg/dL

Q: And the “Blood urea nitrogen (UN), before administration” value ([1]; 50 mg/kg oral group)?
A: 11.5 ± 0.4 mg/dL

Q: And the “GDF-15 (growth differentiation factor), 48 hours after ischemia reperfusion” value ([1]; 50 mg/kg oral x5)?
A: 1327 ± 300 pg/mL

Q: What about the “Blood creatinine (CRE), 48 hours after ischemia reperfusion” value ([1]; 50 mg/kg oral x5) of the same molecule?
A: 2.07 ± 0.45 mg/dL

Q: And the “Blood urea nitrogen (UN), 48 hours after ischemia reperfusion” value ([1]; 50 mg/kg oral x5)?
A: 106.2 ± 16.5 mg/dL

Q: What about the “UN value, change versus control group” value ([1]; GSSSG administration group, 20 and 50 mg/kg oral, 48 hours after reperfusion, Table 5) of the same molecule?
A: decreased in a dose-dependent manner

Q: And the “CRE value, change versus control group” value ([1]; GSSSG administration group, 20 and 50 mg/kg oral, 48 hours after reperfusion, Table 6)?
A: decreased in a dose-dependent manner

Q: And the “UN value (urea nitrogen concentration in plasma)” value ([2]; FIG. 1)?
A: decreased

Q: And the “CRE value (creatinine concentration in plasma)” value ([2]; FIG. 2)?
A: decreased
